Read-outs that look alike come from different tables or passages of the source.
Legend:
Assay type in all cases: in vivo
[1] = test system: Phytophthora infestans (the causal agent of tomato late blight); test: whole plant or invertebrate; settings: for pest or weed control at 40 ppm: Phytophthora infestans, 144 h, read-out: Percent Disease Control, Test B
[2] = test system: Plasmopara vilicola (the causal agent of grape downy mildew); test: Test A: grape downy mildew, test suspension sprayed on grape seedlings after inoculation, visual disease rating; settings: for pest or weed control at 40 ppm: Plasmopara, 144 h, read-out: Percent Disease Control, Test A
Description: General protocol for preparing test suspensions for Test A-C: The test compounds were first dissolved in acetone in an amount equal to 3% of the final volume and then suspended at the desired concentration (in ppm) in acetone and purified water (50/50 mix by volume) containing 250 ppm of the surfactant Trem® 014 (polyhydric alcohol esters). The resulting test suspensions were then used in Tests A-C. Spraying a 200 ppm test suspension to the point of run-off on the test plants was equivalent to a rate of 500 g/ha.
Grape seedlings were inoculated with a spore suspension of Plasmopara vilicola (the causal agent of grape downy mildew) and incubated in a saturated atmosphere at 20° C. for 24 h. After a short drying period, the test suspension was sprayed to the point of run-off on the grape seedlings, which were then moved to a growth chamber at 20° C. for 5 days, after which time the grape seedling were placed back into a saturated atmosphere at 20° C. for 24 h. Upon removal, visual disease ratings were made.
Results for Tests A-C are given in Table A. In the table, a rating of 100 indicates 100% disease control and a rating of 0 indicates no disease control (relative to the controls). A dash (-) indicates no test results.

[3] = test system: Phytophthora infestans (the causal agent of tomato late blight); test: whole plant or invertebrate; settings: for pest or weed control at 40 ppm: Phytophthora infestans, 96 h, read-out: Percent Disease Control, Test C
[4] = compounds without asterisk (application rate not given), 100 = 100% disease control, 0 = no control relative to the controls

SMILES | Percent Disease Control, Test B ([1]; * tested at 40 ppm) [%] | Percent Disease Control, Test A ([2]; * tested at 40 ppm) [%] | Percent Disease Control, Test C ([3]; * tested at 40 ppm) [%] | Percent Disease Control, Test B [1, 4] [%] | Percent Disease Control, Test A [2, 4] [%] | Percent Disease Control, Test C [3, 4] [%] | also measured
Cc1cc(C(F)(F)F)nn1CC(=O)N1CCC(c2nc(C3=NC[C@@H](c4ccccc4)N3C)cs2)CC1 [Compound 118] | 87 | 0 | 16 | – | – | – | –
Cc1cc(C(F)(F)F)nn1CC(=O)N1CCC(c2nc(C3=NOC4(CCc5ccccc54)C3)cs2)CC1 (centres unmarked) [Compound 44, 1-[4-[4-(2,3-dihydrospiro[1H-indene-1,5′(4′H)-isoxazol]-3′-yl)-2-thiazolyl]-1-piperidinyl]-2-[5-methyl-3-(trifluoromethyl)-1H-pyrazol-1-yl]ethanone] | – | – | – | – | – | – | pest or weed control at 40 ppm [1]: 100%; pest or weed control at 40 ppm ([2]; * tested at 40 ppm): 100%; pest or weed control at 40 ppm [3]: 99%
Cc1cc(C(F)(F)F)nn1CC(=O)N1CCC(c2nc(C3=NOC(c4ccc5ccccc5c4)C3)cs2)CC1 (centres unmarked) [Compound 88] | 100 | 99 | 99 | – | – | – | –
Cc1cc(C(F)(F)F)nn1CC(=O)N1CCC(c2nc(-c3ccc(Br)cc3)cs2)CC1 [Compound 249] | 64 | 99 | 0 | – | – | – | –
Cc1cc(C(F)(F)F)nn1CC(=O)N1CCC(c2nc(-c3cccc(Cl)c3)cs2)CC1 [Compound 123] | – | – | – | 68 | 95 | 0 | –
Cc1cc(C(F)(F)F)nn1CC(=O)N1CCC(c2nc(-c3ccccc3)cs2)CC1 [Compound 62] | – | – | – | 73 | 73 | 26 | –
Cc1cc(C(F)(F)F)nn1CC(=O)N1CCC(c2nc(C3=NOC4(CCC(c5ccccc5)CC4)C3)cs2)CC1 (centres unmarked) [Compound 104] | – | – | – | 100 | 100 | 99 | –
Cc1cc(C(F)(F)F)nn1CC(=O)N1CCC(c2nc(-c3ncc(-c4ccccc4)o3)cs2)CC1 [Compound 42] | – | – | – | 100 | 62 | 96 | –
Cc1cc(C(F)(F)F)nn1CC(=O)N1CCC(c2nc(C3=NOC(c4ccccc4)(C(C)C)C3)cs2)CC1 (centres unmarked) [Compound 100] | 100 | 100 | 99 | – | – | – | –
O=C(Cn1nc(C(F)(F)F)cc1Cl)N1CCC(c2nc(C3=NOC(c4ccccc4)C3)cs2)CC1 (centres unmarked) [Compound 107, 2-[5-chloro-3-(trifluoromethyl)-1H-pyrazol-1-yl]-1-[4-[4-(4,5-dihydro-5-phenyl-3-isoxazolyl)-2-thiazolyl]-1-piperidinyl]ethanone] | – | – | – | – | – | – | pest or weed control at 40 ppm [1]: 100%; pest or weed control at 40 ppm ([2]; * tested at 40 ppm): 100%; pest or weed control at 40 ppm [3]: 99%
Cc1cc(C(F)(F)F)nn1CC(=O)N1CCC(c2nc(C3=NOC(n4c(=O)n(C)c5ccccc54)C3)cs2)CC1 (centres unmarked) [Compound 275] | – | – | – | – | – | – | Percent Disease Control, Test B ([1]; ** tested at l0 ppm): 100%; Percent Disease Control, Test A ([2]; ** tested at l0 ppm): 99%; Percent Disease Control, Test C ([3]; ** tested at l0 ppm): 98%
O=C(Cn1nc(C(F)(F)F)cc1Br)N1CCC(c2nc(C3=NOC(c4ccccc4)C3)cs2)CC1 (centres unmarked) [Compound 126, 2-[5-bromo-3-(trifluoromethyl)-1H-pyrazol-1-yl]-1-[4-[4-(4,5-dihydro-5-phenyl-3-isoxazoly)-2-thiazolyl]-1-piperidinyl]ethanone] | – | – | – | 100 | 100 | 99 | Percent Disease Control, Test A ([2]; compounds without asterisk (application rate not given), 100 = 100% disease control, 0 = no control relative to the controls, listed as 11): 99%
CC(=O)N1CCC2(CC1)CC(c1csc(C3CCN(C(=O)Cn4nc(C(F)(F)F)cc4C)CC3)n1)=NO2 [Compound 196] | 100 | 99 | 99 | – | – | – | –
Cc1cc(C(F)(F)F)nn1CC(=O)N1CCC(c2nc(C3=NOC(CN4C(=O)c5ccccc5C4=O)C3)cs2)CC1 (centres unmarked) [Compound 278] | 100 | 94 | 99 | – | – | – | –
Cc1cc(C(F)(F)F)nn1CC(=O)N1CCC(c2nc(C3=NOC(N4C(=O)C(=O)c5ccccc54)C3)cs2)CC1 (centres unmarked) [Compound 222] | – | – | – | 100 | 100 | 100 | –
CCOC(=O)c1cc(C)nn1CC(=O)N1CCC(c2nc(C3=NOC(c4ccccc4)C3)cs2)CC1 (centres unmarked) [Compound 238] | 100 | 100 | 100 | – | – | – | –

SMILES | Percent Disease Control, Test B ([1]; * tested at 40 ppm) [%] | Percent Disease Control, Test A ([2]; * tested at 40 ppm) [%] | Percent Disease Control, Test C ([3]; * tested at 40 ppm) [%] | Percent Disease Control, Test B [1, 4] [%] | Percent Disease Control, Test A [2, 4] [%] | Percent Disease Control, Test C [3, 4] [%] | also measured
Cc1cc(C(F)(F)F)nn1CC(=O)N1CCC(c2nc(C3=NOC(c4cccc(Cl)c4)C3)cs2)CC1 (racemic) [Compound 17] | 99 | 100 | 99 | – | – | – | –
Cc1cc(C(F)(F)F)nn1CC(=O)N1CCC(c2nc(C3=NOC(c4ccsc4)C3)cs2)CC1 (centres unmarked) [Compound 148] | – | – | – | – | – | – | Percent Disease Control, Test B ([1]; ** tested at l0 ppm): 100%; Percent Disease Control, Test A ([2]; ** tested at l0 ppm): 100%; Percent Disease Control, Test C ([3]; ** tested at l0 ppm): 99%
Cc1cc(C(F)(F)F)nn1CC(=O)N1CCC(c2nc(C3=NOC(CCC(C)C)C3)cs2)CC1 (racemic) [Compound 27] | – | – | – | 100 | 100 | 98 | –
Cc1cc(C(F)(F)F)nn1CC(=O)N1CCC(c2nc(C3=NOC4(CCC(C#N)CC4)C3)cs2)CC1 (single isomer, unassigned) [Compound 255] | 100 | 95 | 93 | – | – | – | –
Cc1cc(C(F)(F)F)nn1CC(=O)N1CCC(c2nc(-c3csc(-c4ccccc4)n3)cs2)CC1 [Compound 84] | – | – | – | 33 | 67 | 0 | –
Cc1cc(C(F)(F)F)nn1CC(=O)N1CCC(c2nc(C3=NOC4(CC(=O)N(C)C4=O)C3)cs2)CC1 (centres unmarked) [Compound 267] | – | – | – | 100 | 100 | 100 | –
CCCC1(c2ccccc2)CC(c2csc(C3CCN(C(=O)Cn4nc(C(F)(F)F)cc4C)CC3)n2)=NO1 (centres unmarked) [Compound 101] | 100 | 100 | 99 | – | – | – | –
Cc1cc(C(F)(F)F)nn1CC(=O)N1CCC(c2nc(-c3ccc([N+](=O)[O-])cc3)cs2)CC1 [Compound 248] | 73 | 90 | 26 | – | – | – | –
Cc1cc(C(F)(F)F)nn1CC(=O)N1CCC(c2nc(-c3ccc(CC(C)C)cc3)cs2)CC1 [Compound 274] | – | – | – | 100 | 99 | 100 | –
Cc1cc(C(F)(F)F)nn1CC(=O)N1CCC(c2nc(Cn3ccc(-c4ccccc4)n3)cs2)CC1 [Compound 160] | – | – | – | 80 | 68 | 17 | –
COc1cccc(-c2csc(C3CCN(C(=O)Cn4nc(C(F)(F)F)cc4C)CC3)n2)c1 [Compound 152] | – | – | – | 89 | 91 | – | –
Cc1ccc(-c2csc(C3CCN(C(=O)Cn4nc(C(F)(F)F)cc4C)CC3)n2)cc1 [Compound 151] | – | – | – | 99 | 100 | – | –
COc1ccc(-c2csc(C3CCN(C(=O)Cn4nc(C(F)(F)F)cc4C)CC3)n2)cc1 [Compound 150] | – | – | – | 100 | 99 | – | –
Cc1cccc(-c2csc(C3CCN(C(=O)Cn4nc(C(F)(F)F)cc4C)CC3)n2)c1 [Compound 149] | – | – | – | 97 | 99 | – | –
COc1ccccc1-c1csc(C2CCN(C(=O)Cn3nc(C(F)(F)F)cc3C)CC2)n1 [Compound 153] | – | – | – | 0 | 73 | – | –
